Measured values reported in patent US12263155B2, “Combinations of monoamine oxidase inhibitors and serotonin receptor agonists and their therapeutic use” (Remedi, Inc., priority 2022, dated 2025).

Assay: Phase 1 single dose escalation pharmacokinetics
Details: for Clast / Cmax/Dose / Tlast / % AUCextrap / AUCinf/Dose / kel / AUC(0-t): mean; for Cmax / Tmax / concentration at 24 h / AUC(0-t) / AUC(0-inf) / CL/F / Vd/F / half-life: male, human, plasma, po
Experimental: Methods: The trial was a Phase 1, single center, double-blind, placebo-controlled, sequential group, acute dose escalation study of the safety and pharmacokinetics of seven (7) CX157 dose levels in healthy male volunteers. Each of the seven (7) dose groups consisted of six (6) subjects, with the exception of cohort 2 (CX157 10 mg or placebo) which enrolled only five (5) subjects. Within each dose group, four (4) subjects were randomized to CX157 and two (2) subjects to placebo. Subjects were normal healthy volunteers confined to the study center for approximately 4 days, beginning approximately 16 hours before exposure to study drug and ending approximately 48 hours after exposure to study drug. Safety and tolerability was assessed for each dose group by the Principal Investigator before advancing to the next scheduled dose group. CX157 was administered as a fully solubilized microemulsion in Labrasol™
Plasma samples for the pharmacokinetic analysis of CX157 were obtained at predose (30 minutes prior to dosing), 10, 20, 30, 60 and 90 minutes, 2, 4, 8, 12, 16, 24, 36 and 48 hours after dosing. […] FIG. 11 details the plasma concentrations of CX157 (in ng/mL) of subjects for each of the seven dose groups, wherein the dosage amounts of CX157 administered to the subjects were 5 mg, 10 mg, 15 mg, 20 mg, 40 mg, 80 mg, and 120 mg.
Formulation: Each natural/transparent Licaps® size 0 hard gelatin capsule contains 5 mg or 10 mg CX157 in Labrasol™; each capsule is banded with a green gelatin band that is comprised of gelatin NF and polysorbate-80 NF. CX157 Liquid Filled Capsules are packaged in white, opaque, high density polyethylene (HDPE) bottles with screw-top polypropylene child resistant caps. Each bottle contains 30 capsules per bottle. CX157 Liquid Filled Capsules, 5 mg and 10 mg are stored long-term at controlled room temperature conditions [i15° C. to 30° C. (59° F. to 86° F.)].

[1] = healthy males, single oral 5 mg
[2] = healthy males, single oral 10 mg
[3] = healthy males, single oral 15 mg
[4] = healthy males, single oral 20 mg
[5] = healthy males, single oral 40 mg
[6] = healthy males, single oral 80 mg

Q: With `O=S1(=O)c2ccc(F)cc2Oc2cc(OCC(F)(F)F)ccc21` [CX157, 3-fluoro-7(2,2,2-trifluorethoxy)phenoxathiine-10,10-dioxide] as the compound, how does the Clast [1] read?
A: 0.15 ng/mL

Q: What about the Cmax/Dose [1] of the same compound?
A: 87

Q: And the Tlast [1]?
A: 17 h

Q: What about the “% AUCextrap” value [2] of the same compound?
A: 6.2%

Q: What about the AUCinf/Dose [2] of the same compound?
A: 906

Q: And the Clast [2]?
A: 0.2 ng/mL

Q: What about the Cmax/Dose [2] of the same compound?
A: 182

Q: What about the Tlast [2] of the same compound?
A: 40 h

Q: And the kel [2]?
A: 0.0371 h⁻¹

Q: What about the “% AUCextrap” value [3] of the same compound?
A: 5%

Q: What about the AUCinf/Dose [3] of the same compound?
A: 673

Q: And the Clast [3]?
A: 0.38 ng/mL

Q: And the Cmax/Dose [3]?
A: 212

Q: What about the Tlast [3] of the same compound?
A: 45 h

Q: And the kel [3]?
A: 0.0529 h⁻¹

Q: And the “% AUCextrap” value [4]?
A: 3.1%

Q: And the AUCinf/Dose [4]?
A: 701

Q: And the Clast [4]?
A: 0.24 ng/mL

Q: And the Cmax/Dose [4]?
A: 251

Q: What about the Tlast [4] of the same compound?
A: 48 h

Q: And the kel [4]?
A: 0.0488 h⁻¹

Q: And the “% AUCextrap” value [5]?
A: 3.3%

Q: What about the AUCinf/Dose [5] of the same compound?
A: 619

Q: And the Clast [5]?
A: 0.48 ng/mL

Q: What about the Cmax/Dose [5] of the same compound?
A: 234

Q: What about the Tlast [5] of the same compound?
A: 48 h

Q: And the kel [5]?
A: 0.0459 h⁻¹

Q: And the “% AUCextrap” value [6]?
A: 5.2%

Q: What about the AUCinf/Dose [6] of the same compound?
A: 720

Q: What about the Clast [6] of the same compound?
A: 1.9 ng/mL

Q: What about the Cmax/Dose [6] of the same compound?
A: 232

Q: What about the Tlast [6] of the same compound?
A: 48 h

Q: And the kel [6]?
A: 0.0456 h⁻¹

Q: What about the Cmax (5 mg) of the same compound?
A: 5.8 ng/mL

Q: What about the Tmax (5 mg) of the same compound?
A: 0.75 h

Q: And the concentration at 24 h (5 mg)?
A: 0.14 ng/mL

Q: What about the AUC(0-t) (5 mg, AUC0-24, healthy males, single oral 5 mg) of the same compound?
A: 21.6 ng·h/mL

Q: What about the AUC(0-t) (5 mg, AUClast, healthy males, single oral 5 mg) of the same compound?
A: 16.5 ng·h/mL

Q: What about the AUC(0-inf) (10 mg) of the same compound?
A: 102 ng·h/mL

Q: And the CL/F (10 mg)?
A: 19.7 mL/min/kg

Q: And the Cmax (10 mg)?
A: 20.8 ng/mL

Q: What about the Tmax (10 mg) of the same compound?
A: 1.17 h

Q: What about the Vd/F (10 mg) of the same compound?
A: 33.3 L/kg

Q: What about the concentration at 24 h (10 mg) of the same compound?
A: 0.37 ng/mL

Q: What about the half-life (10 mg) of the same compound?
A: 18.9 h

Q: What about the AUC(0-t) (10 mg, AUC0-24, healthy males, single oral 10 mg) of the same compound?
A: 63 ng·h/mL

Q: And the AUC(0-t) (10 mg, AUC0-48, healthy males, single oral 10 mg)?
A: 96 ng·h/mL

Q: What about the AUC(0-t) (10 mg, AUClast, healthy males, single oral 10 mg) of the same compound?
A: 69 ng·h/mL

Q: And the AUC(0-inf) (15 mg)?
A: 129 ng·h/mL

Q: And the CL/F (15 mg)?
A: 30.2 mL/min/kg

Q: What about the Cmax (15 mg) of the same compound?
A: 42.2 ng/mL

Q: What about the Tmax (15 mg) of the same compound?
A: 0.88 h

Q: And the Vd/F (15 mg)?
A: 33.7 L/kg

Q: And the concentration at 24 h (15 mg)?
A: 1 ng/mL

Q: What about the half-life (15 mg) of the same compound?
A: 13.3 h

Q: And the AUC(0-t) (15 mg, AUC0-24, healthy males, single oral 15 mg)?
A: 107 ng·h/mL

Q: And the AUC(0-t) (15 mg, AUC0-48, healthy males, single oral 15 mg)?
A: 129 ng·h/mL

Q: And the AUC(0-t) (15 mg, AUClast, healthy males, single oral 15 mg)?
A: 122 ng·h/mL

Q: And the AUC(0-inf) (20 mg)?
A: 154 ng·h/mL

Q: And the CL/F (20 mg)?
A: 26.5 mL/min/kg

Q: What about the Cmax (20 mg) of the same compound?
A: 56.1 ng/mL

Q: What about the Tmax (20 mg) of the same compound?
A: 0.75 h

Q: What about the Vd/F (20 mg) of the same compound?
A: 32.9 L/kg

Q: What about the concentration at 24 h (20 mg) of the same compound?
A: 0.74 ng/mL

Q: And the half-life (20 mg)?
A: 14.4 h

Q: And the AUC(0-t) (20 mg, AUC0-24, healthy males, single oral 20 mg)?
A: 139 ng·h/mL

Q: And the AUC(0-t) (20 mg, AUC0-48, healthy males, single oral 20 mg)?
A: 149 ng·h/mL

Q: What about the AUC(0-t) (20 mg, AUClast, healthy males, single oral 20 mg) of the same compound?
A: 149 ng·h/mL

Q: And the AUC(0-inf) (40 mg)?
A: 321 ng·h/mL

Q: What about the CL/F (40 mg) of the same compound?
A: 29.9 mL/min/kg

Q: And the Cmax (40 mg)?
A: 123 ng/mL

Q: What about the Tmax (40 mg) of the same compound?
A: 0.83 h

Q: What about the Vd/F (40 mg) of the same compound?
A: 38.1 L/kg

Q: What about the concentration at 24 h (40 mg) of the same compound?
A: 1.4 ng/mL

Q: And the half-life (40 mg)?
A: 15.6 h

Q: What about the AUC(0-t) (40 mg, AUC0-24, healthy males, single oral 40 mg) of the same compound?
A: 291 ng·h/mL

Q: What about the AUC(0-t) (40 mg, AUC0-48, healthy males, single oral 40 mg) of the same compound?
A: 309 ng·h/mL

Q: What about the AUC(0-t) (40 mg, AUClast, healthy males, single oral 40 mg) of the same compound?
A: 309 ng·h/mL

Q: And the AUC(0-inf) (80 mg)?
A: 772 ng·h/mL

Q: What about the CL/F (80 mg) of the same compound?
A: 25.3 mL/min/kg

Q: And the Cmax (80 mg)?
A: 245 ng/mL

Q: What about the Tmax (80 mg) of the same compound?
A: 1 h

Q: What about the Vd/F (80 mg) of the same compound?
A: 33.5 L/kg

Q: And the concentration at 24 h (80 mg)?
A: 5.5 ng/mL

Q: What about the half-life (80 mg) of the same compound?
A: 15.3 h

Q: What about the AUC(0-t) (80 mg, AUC0-24, healthy males, single oral 80 mg) of the same compound?
A: 647 ng·h/mL

Q: And the AUC(0-t) (80 mg, AUC0-48, healthy males, single oral 80 mg)?
A: 730 ng·h/mL

Q: And the AUC(0-t) (80 mg, AUClast, healthy males, single oral 80 mg)?
A: 730 ng·h/mL
